Measurements: US9856298B2 (priority 2011, dated 2018)
≈ marks a conversion by molar mass, not a printed value. Where two headings read alike, the source gives them in different places. Square brackets hold non-standard residues; d marks the D form. Primed or numbered codes have the meaning given here. Side chains are listed from the residue outwards. Peptide text beside a SMILES is read from it. * marks the point of attachment. Orn(α-tetramethylguanidino) = CN(C)C(=N[C@@H](CCCN)C(=O)*)N(C)C; Guan″ = guanidino group at the N-terminus, N=C(N)*; sPEG750 = PEG of 750 linked via acid group; Guan = N-guanidino (N-terminal), N=C(N)*; Hyp = O=C(O)[C@@H]1C[C@@H](O)CN1; Tle = CC(C)(C)[C@H](N)C(=O)O; Orn = NCCC[C@H](N)C(=O)O

Tests used:
[1] = system: Escherichia coli strain BL21AI; assay: Minimum inhibitory concentration in TSB in the presence of 25% mouse serum; assay type: cell-based; details: E. coli BL21AI, TSB with 25% mouse serum, 20 hours at 37° C.
Method: (§1) To that end, the peptides were dissolved in water and diluted in a two-fold dilution series with 1% aqueous soybean medium (TSB) in sterile 96-well plates (Greiner Bio-One GmbH) from 128 μg/ml in twelve dilution steps to 62.5 ng/ml. Overnight cultures of Escherichia coli strain BL21AI were adjusted with 1% TSB to about […] colony forming units per ml. In each case 50 μl of peptide solution per well were then mixed with in each case 50 μl of the bacteria solution, in order to achieve a starting concentration of 4×10^5 bacteria per well. After incubation for 20 hours at 37° C., the absorption at 595 nm was determined (microplate reader, TECAN Trading AG).
In addition, the antibacterial activity was also determined in the presence of 25% mouse serum. To that end, the MIC values were determined as described above, but 25 μl of mouse serum were also added to each well before the incubation (25% final concentration).

[2] = system: Escherichia coli strain BL21AI; assay: Minimum inhibitory concentration in 1% TSB; assay type: cell-based; details: for MIC in TSB: E. coli BL21AI, 1% TSB, 20 hours at 37° C.; for Effect of peptide linker or remaining linker residues on the MIC: compared with the unmodified peptide
Method: as §1

[3] = Serum stability / release of peptide in pure mouse serum (100%) (RP-HPLC, MALDI-MS)
Method: (§2) 30 μl of a 1 mg/ml peptide solution were diluted with 120 μl of water and, after addition of 50 of serum, incubated at 37° C. for 0 hours, 0.5 hour, 1 hour, 2 hours or 4 hours. Alternatively, the peptide derivatives having a starting concentration of 3 mg/ml were diluted with serum to a final concentration of 15 μg/ml. According to the stability of the peptides, the samples were analysed at the times mentioned above or after 0 hours, 4 hours and 6 hours. The serum proteins were precipitated by addition of 50 μl of 15% TCA, and the supernatant was neutralised with 25 μl of 1 mol/l NaOH. The samples were made up to 250 μl with 5% B, 230 μl of the solution were transferred into a HPLC vial, and 220 μl were injected.
(§3) RP-HPLC analysis was carried out with a linear acetonitrile gradient (Biosolve BV, Valkenswaard, Netherlands) in the presence of 0.1% trifluoroacetic acid (TFA, UV grade, Fluka Chemie GmbH, Buchs, Switzerland) as ion-pair reagent. The fractions were co-crystallised with α-cyanohydroxycinnamic acid (Bruker Daltonik GmbH; Bremen, Germany) as matrix (4 mg/ml in 60% acetonitrile in 0.1% aqueous TFA) and analysed with a tandem mass spectrometer (MALDI-TOF/TOF-MS, 4700 Proteomics Analyzer; Applied Biosystems GmbH, Weiterstadt, Germany) in positive-ion reflector mode. The amount of intact peptides and their degradation products or metabolites could thus be identified and quantified at the individual times. 25% aqueous mouse serum, which was analysed in parallel for the same time intervals, was used as control.

[4] = mouse; for uncleaved peptide remaining after the indicated time (instead of half-life): serum, 6 h, 15 µg/ml
Method: as §2, §3

CC[C@H](C)[C@H](NC(=O)[C@H](Cc1ccc(O)cc1)NC(=O)[C@@H](NC(=O)[C@@H]1CCCN1C(=O)[C@H](CCCNC(=N)N)NC(=O)[C@H](CC(N)=O)NC(=O)[C@H](CC(N)=O)NC(=O)[C@H](CCCN)N=C(N(C)C)N(C)C)C(C)C)C(=O)N1CCC[C@H]1C(=O)N[C@@H](CCCNC(=N)N)C(=O)N1CCC[C@H]1C(=O)N[C@@H](CCCNC(=N)N)C(=O)N1CCC[C@H]1C(=O)N1CCC[C@H]1C(=O)N[C@@H](Cc1c[nH]cn1)C(=O)N1CCC[C@H]1C(=O)N[C@@H](CCCNC(=N)N)C(=O)N[C@@H](CC(C)C)C(N)=O [Api 88, Guan-ONNRPVYIPRPRPPHPRL-NH2, reference compound] ({Orn(α-tetramethylguanidino)}-NNRPVYIPRPRPPHPRL-NH2)
MIC in TSB/mouse serum [1]: 1.19 µM
MIC in TSB [2]: 0.44 µM (≈ 1.01 µg/mL)

CC[C@H](C)[C@H](NC(=O)[C@H](Cc1ccc(O)cc1)NC(=O)[C@@H](NC(=O)[C@@H]1CCCN1C(=O)[C@H](CCCNC(=N)N)NC(=O)[C@H](CC(N)=O)NC(=O)[C@H](CC(N)=O)NC(=O)[C@H](CCCN)N=C(N(C)C)N(C)C)C(C)C)C(=O)N1CCC[C@H]1C(=O)N[C@@H](CCCNC(=N)N)C(=O)N1CCC[C@H]1C(=O)N[C@@H](CCCNC(=N)N)C(=O)N1CCC[C@H]1C(=O)N1CCC[C@H]1C(=O)N[C@@H](Cc1c[nH]cn1)C(=O)N1CCC[C@H]1C(=O)N[C@@H](CCCN)C(=O)N[C@@H](CC(C)C)C(N)=O [Api 134, Guan-ONNRPVYIPRPRPPHPOL-NH2, reference compound] ({Orn(α-tetramethylguanidino)}-NNRPVYIPRPRPPHP[Orn]L-NH2)
MIC in TSB/mouse serum [1]: 7.12 µM
MIC in TSB [2]: 1.78 µM (≈ 4 µg/mL)

CC[C@H](C)[C@H](NC(=O)[C@H](Cc1ccc(O)cc1)NC(=O)[C@@H](NC(=O)[C@@H]1CCCN1C(=O)[C@H](CCCNC(=N)N)NC(=O)[C@H](CC(N)=O)NC(=O)[C@H](CCCNC(=O)CNC(=O)[C@@H](N)CO)NC(=O)[C@H](CCCN)N=C(N(C)C)N(C)C)C(C)C)C(=O)N1CCC[C@H]1C(=O)N[C@@H](CCCNC(=N)N)C(=O)N1CCC[C@H]1C(=O)N[C@@H](CCCNC(=N)N)C(=O)N1CCC[C@H]1C(=O)N1CCC[C@H]1C(=O)N[C@@H](Cc1c[nH]cn1)C(=O)N1CCC[C@H]1C(=O)N[C@@H](CCCNC(=N)N)C(=O)N[C@@H](CC(C)C)C(=O)O [Api 300 (SG)] ({Orn(α-tetramethylguanidino)}-[Orn]([Gly-Ser])NRPVYIPRPRPPHPRL-OH)
MIC in TSB/mouse serum [1]: 0.21 µM
MIC in TSB [2]: 0.8 µM (≈ 1.95 µg/mL)
Effect of peptide linker or remaining linker residues on the MIC [2]: does not increase the MIC or increases it only insignificantly
half-life at 15 µg/ml ([3]; mouse, pure (100%) mouse serum): 4 h

CC[C@H](C)[C@H](NC(=O)[C@H](Cc1ccc(O)cc1)NC(=O)[C@@H](NC(=O)[C@@H]1CCCN1C(=O)[C@H](CCCNC(=N)N)NC(=O)[C@H](CCCNC(=O)CNC(=O)[C@@H](N)CO)NC(=O)[C@H](CC(N)=O)NC(=O)[C@H](CCCN)N=C(N(C)C)N(C)C)C(C)C)C(=O)N1CCC[C@H]1C(=O)N[C@@H](CCCNC(=N)N)C(=O)N1CCC[C@H]1C(=O)N[C@@H](CCCNC(=N)N)C(=O)N1CCC[C@H]1C(=O)N1CCC[C@H]1C(=O)N[C@@H](Cc1c[nH]cn1)C(=O)N1CCC[C@H]1C(=O)N[C@@H](CCCNC(=N)N)C(=O)N[C@@H](CC(C)C)C(=O)O [Api 301 (SG)] ({Orn(α-tetramethylguanidino)}-N[Orn]([Gly-Ser])RPVYIPRPRPPHPRL-OH)
MIC in TSB [2]: 1.6 µM (≈ 3.9 µg/mL)
Effect of peptide linker or remaining linker residues on the MIC [2]: does not increase the MIC or increases it only insignificantly
remaining at 4 h, 15 µg/ml ([3]; mouse, pure (100%) mouse serum): 60%

CC[C@H](C)[C@H](NC(=O)[C@H](CCCN)NC(=O)[C@H](CCCNC(=N)N)NC(=O)[C@@H]1CCCN1C(=O)[C@@H]1CCCN1C(=O)[C@H](CCCNC(=N)N)NC(=O)[C@@H]1CCCN1C(=O)[C@H](CCCNC(=N)N)NC(=O)[C@@H]1CCCN1C(=O)[C@H](CC(C)C)NC(=O)[C@H](Cc1ccc(O)cc1)NC(=O)[C@@H]1CCCN1C(=O)[C@@H]1CCCN1C(=O)[C@H](CCCCN)NC(=O)[C@H](CC(=O)O)NC(=O)[C@@H](NC(=O)[C@H](CCCNC(=N)N)NC(=O)[C@H](C)NC(=O)CN)C(C)C)C(=O)N[C@@H](Cc1ccc(O)cc1)C(=O)N[C@@H](CC(N)=O)C(=O)N[C@@H](CCCN)C(N)=O [GAR-Onc 72, GAR-VDKPPYLPRPRPPROIYNO-NH2] (H-GARVDKPPYLPRPRPPR[Orn]IYN[Orn]-NH2)
MIC in TSB [2]: 3.1 µM (≈ 8.03 µg/mL)
Effect of peptide linker or remaining linker residues on the MIC [2]: does not increase the MIC or increases it only insignificantly
remaining at 4 h, 15 µg/ml ([3]; mouse, pure (100%) mouse serum): 85%

CC(C)C[C@H](NC(=O)[C@H](Cc1ccc(O)cc1)NC(=O)[C@@H]1CCCN1C(=O)[C@@H]1CCCN1C(=O)[C@H](CCCCN)NC(=O)[C@H](CC(=O)O)NC(=O)[C@@H](NC(=O)[C@H](CCCNC(=N)N)NC(=O)[C@H](C)NC(=O)CN)C(C)C)C(=O)N1CCC[C@H]1C(=O)N[C@@H](CCCNC(=N)N)C(=O)N1CCC[C@H]1C(=O)N[C@@H](CCCNC(=N)N)C(=O)N1CCC[C@H]1C(=O)N1C[C@H](O)C[C@H]1C(=O)N[C@@H](CCCNC(=N)N)C(=O)N1C[C@H](O)C[C@H]1C(=O)N[C@H](C(=O)N[C@@H](Cc1ccc(O)cc1)C(=O)N[C@@H](CC(N)=O)C(=O)N[C@@H](CCCN)C(N)=O)C(C)(C)C [GAR-Onc 110] (H-GARVDKPPYLPRPRP[Hyp]R[Hyp][Tle]YN[Orn]-NH2)
MIC in TSB/mouse serum [1]: 0.65 µM
MIC in TSB [2]: 1.5 µM (≈ 3.91 µg/mL)
Effect of peptide linker or remaining linker residues on the MIC [2]: does not increase the MIC or increases it only insignificantly
remaining at 4 h, 15 µg/ml ([3]; mouse, pure (100%) mouse serum): 75%

CC[C@H](C)[C@H](NC(=O)[C@H](CCCN)NC(=O)[C@H](CCCNC(=N)N)NC(=O)[C@@H]1CCCN1C(=O)[C@@H]1CCCN1C(=O)[C@H](CCCNC(=N)N)NC(=O)[C@@H]1CCCN1C(=O)[C@H](CCCNC(=N)N)NC(=O)[C@@H]1CCCN1C(=O)[C@H](CC(C)C)NC(=O)[C@H](Cc1ccc(O)cc1)NC(=O)[C@@H]1CCCN1C(=O)[C@@H]1CCCN1C(=O)[C@H](CCCCN)NC(=O)[C@H](CC(=O)O)NC(=O)[C@@H](N)C(C)C)C(=O)N[C@@H](Cc1ccc(O)cc1)C(=O)N[C@@H](CC(N)=O)C(=O)N[C@@H](CCCN)C(N)=O [Onc 72, VDKPPYLPRPRPPROIYNO-NH2] (H-VDKPPYLPRPRPPR[Orn]IYN[Orn]-NH2)
MIC in TSB/mouse serum [1]: 1.7 µM
MIC in TSB [2]: 1.7 µM (≈ 3.92 µg/mL)

Guan-ONO(sPEG^750-GARSG)RPVYIPRPRPPHPRL-OH ({Guan″}-[Orn]N[Orn]RPVYIPRPRPPHPRL-OH; not fully specified (residue 3)) [Api 301 (sPEG^750-GARSG)]
MIC in TSB/mouse serum [1]: 0.27 µM
MIC in TSB [2]: 2.9 µM
Half-life (t1/2) in serum [4]: 0.75 h

Guan-OO(sPEG^750-GARSG)NRPVYIPRPRPPHPRL-OH (Guan-[Orn][Orn]NRPVYIPRPRPPHPRL-OH; not fully specified (residue 2)) [Api 300 (sPEG^750-GARSG)]
MIC in TSB/mouse serum [1]: 0.54 µM
MIC in TSB [2]: 2.9 µM
Half-life (t1/2) in serum [4]: 0.583 h

Guan-OO(sPEG^750-GRSG)NRPVYIPRPRPPHPRL-OH (Guan-[Orn][Orn]NRPVYIPRPRPPHPRL-OH; not fully specified (residue 2)) [Api 300 (sPEG^750-GRSG)]
MIC in TSB/mouse serum [1]: 0.37 µM
MIC in TSB [2]: 2.9 µM
Half-life (t1/2) in serum [4]: 0.833 h

Guan-OO(tPEG^5000-GARSG)NRPVYIPRPRPPHPRL-OH (Guan-[Orn][Orn]NRPVYIPRPRPPHPRL-OH; not fully specified (residue 2)) [Api 300 (tPEG^5000-GARSG)]
MIC in TSB/mouse serum [1]: 0.44 µM
MIC in TSB [2]: 17.4 µM
uncleaved peptide remaining after the indicated time (instead of half-life) [4]: 69%

H-GNNRPVYIPQPRPPHPRL-OH [Apidaecin 1b, reference compound]
MIC in TSB/mouse serum [1]: 1.75 µM
MIC in TSB [2]: 0.48 µM

sPEG^750-GAR-VDKPPYLPRPRPHypRHypTleYNO-NH2 (sPEG750-GARVDKPPYLPRPRP[Hyp]R[Hyp][Tle]YN[Orn]-NH2) [sPEG^750-GAR-Onc 110]
MIC in TSB/mouse serum [1]: 9.2 µM
MIC in TSB [2]: 24.3 µM
uncleaved peptide remaining after the indicated time (instead of half-life) [4]: 73%

sPEG^750-GAR-VDKPPYLPRPRPPROIYNO-NH2 (sPEG750-GARVDKPPYLPRPRPPR[Orn]IYN[Orn]-NH2) [sPEG^750-GAR-Onc 72]
MIC in TSB/mouse serum [1]: 6.1 µM
MIC in TSB [2]: 12.2 µM
Half-life (t1/2) in serum ([3]; pure mouse serum, 37° C.): 6 h

tPEG^750-GAR-VDKPPYLPRPRPPROIYNO-NH2 (tPEG750-GARVDKPPYLPRPRPPR[Orn]IYN[Orn]-NH2; not fully specified; printed as tPEG^750-GAR-VDKPPYLPRPRPPROIYNO-NH2) [tPEG^750-GAR-Onc 72]
MIC in TSB [2]: 24.3 µM
uncleaved peptide remaining after the indicated time (instead of half-life) ([3]; pure mouse serum, 6 h): 55%
